# Data published in patent US7285642B2, “Composition and method for modulating dendritic cell-T cell interaction” (Katholieke Universiteit Nijmegen, priority 2000, dated 2007).
# What was measured:
# DC-SIGN [1] = target: T1, DC-SIGN (Homo sapiens, UniProt Q9NNX6); experiment: Adhesion of COS7-DC-SIGN cells to ICAM-3 beads; assay type: cell-based; conditions: 5 mM
# T1 construct: expressed in transfected cells; host or cells: COS7 cells, transient transfection with pRc/CMV-DC-SIGN (DEAE dextran)
# T1 sequence (Q9NNX6 1-404): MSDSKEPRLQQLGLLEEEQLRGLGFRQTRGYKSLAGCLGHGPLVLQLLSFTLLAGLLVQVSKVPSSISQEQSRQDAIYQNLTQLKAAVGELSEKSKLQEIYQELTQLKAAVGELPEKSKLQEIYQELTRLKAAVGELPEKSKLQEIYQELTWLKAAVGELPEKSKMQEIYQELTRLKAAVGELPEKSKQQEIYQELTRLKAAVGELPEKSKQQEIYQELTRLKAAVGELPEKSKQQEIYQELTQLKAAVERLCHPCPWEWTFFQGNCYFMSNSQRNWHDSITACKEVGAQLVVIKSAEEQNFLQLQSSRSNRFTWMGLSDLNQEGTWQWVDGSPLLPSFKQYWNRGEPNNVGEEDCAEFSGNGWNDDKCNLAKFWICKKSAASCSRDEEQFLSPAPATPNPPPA
# From the text: RT-PCR analysis with primers based on the gp120-binding C-type lectin sequence, on RNA isolated from DC yielded a PCR product of the expected length of 1237 nt. The DC-specific PCR product was cloned and sequencing confirmed 100% identity with the human gp120-binding lectin (FIG. 3B). Flowcytometric analysis of COS7 cells, transfected with the cDNA encoding the placenta gp120-binding C-type lectin, unequivocally proves that the gp120 binding C-type lectin is indeed identical to DC-SIGN (FIG. 4A). […] COS7 cells were transfected and the adhesion was determined as described in FIG. 1A, respectively. Adhesion of COS7-DC-SIGN cells to ICAM-3 was measured in the presence of EGTA (5 mM) and blocking antibodies against DC-SIGN (AZN-D1), ICAM-3 (CBR-IC3/1, CBR-IC3/2) and β2 integrinds (AZN-L19). A representative experiment out of 3 is shown (SD<5%). About 30% of the transfected COS7 cells are stained with anti-DC-SIGN-antibody and therefore express DC-SIGN. […]
# Carboxylate-modified TransFluorSpheres (488/645 nm, 1.0 μm; Molecular Probes, Eugene, Oreg.) were coated with ICAM-1 Fc and ICAM-3 Fc as described previously (Geijtenbeek et al., 1999 submitted). […] Adhesion was determined by measuring the percentage of cells, which have bound fluorescent beads, by flowcytometry using the FACScan (Becton and Dickinson & Co., Oxnard, Calif.).
# adhesion of DC to ICAM-3 = experiment: Fluorescent beads adhesion assay: adhesion of DC to ICAM-3Fc beads; assay type: cell-based, human; conditions: 5 mM
# Protocol: Exploiting a novel flowcytrometric adhesion assay involving ICAM-3-Fc chimera coated fluorescent beads (Geijtenbeek et al.), the capacity of DC, resting peripheral blood lymphocytes (PBL) and monocytes to bind to this integrin ligand was tested. […] Freshly isolated PBL, monocytes and DC were incubated for 30 min. at 37° C. with either ICAM-1Fc or ICAM-3Fc fluorescent beads. After washing, the percentage of cells that bound beads was determined by flowcytometry. • 1B: Adhesion of leukocytes to ICAM-3 after activation of β2-integrins. Binding of fluorescent ICAM-3Fc beads was measured after 30 min. at 37° C. in the presence of either PMA 980 nM) or the activating anti-β2-integrin antibody KIM185 (10 μg/ml). Inhibition of the LFA-1 specific adhesion after PMA activation was determined in the presence of the blocking anti-LFA-1 antibody NKI-L15 (20 μg/ml). • 1C: Adhesion of DC to ICAM-3 in the presence of blocking antibodies (20 μg/ml) against β2-integrins (NKI-L19), β1-integrin (AIIB2), ICAM-3 (CBR-IC3/1, CBR-IC3/2) or in the presence of EDTA (5 mM) or EGTA (5 mM). The adhesion was determined as described in FIG. 1A.
# DC were cultured from monocytes in the presence of GM-CSF and IL-4. […] Adhesion was determined as described in FIG. 1A. […]
# DC-SIGN [2] = target: T1, DC-SIGN; experiment: Binding of DC-SIGN to ICAM-2 and ICAM-3 expressing K562 cells (FIG. 8); assay type: cell-based
Molecule,Inhibition of adhesion of COS7-DC-SIGN cells to ICAM-3 (DC-SIGN [1]),Inhibition of adhesion of DC to ICAM-3Fc fluorescent beads (adhesion of DC to ICAM-3),Inhibition of DC-SIGN binding to K562 cells expressing ICAM-2 or ICAM-3 (DC-SIGN [2])
O=C(O)CN(CCOCCOCCN(CC(=O)O)CC(=O)O)CC(=O)O [EGTA],blocks adhesion completely,completely blocked,
O=C(O)CN(CCN(CC(=O)O)CC(=O)O)CC(=O)O [EDTA],,completely blocked,
mannan,,,can be inhibited
